This note sets out measurements from US8076487B2, “Pyridone derivative and herbicide” (Kumiai Chemical Industry Co., Ltd., priority 2006, dated 2011).

Holding throughout (type): in vivo
For assay [1], the system named is Japanese bulrush (Scirpus juncoides Roxb.). In words: Test Example 1: herbicidal effect by soil application to paddy field. Conditions: paddy field soil application; active ingredient 1,000 g per 1 hectare; wettable powder added dropwise to water surface the day after sowing; examined on the 21st day after application. The essentials:
(§1)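 Under greenhouse conditions, seeds sown on puddled paddy soil in 100 cm2 pots under 3 cm of standing water received the test compound; injury was assessed with a standard scoring scheme three weeks (day 21) after treatment.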

Assay [2] deals with early watergrass (Echinochloa oryzicola Vasing). The assay is described as above. As to conditions: paddy field soil application; active ingredient 1,000 g per 1 hectare; wettable powder added dropwise to water surface the day after sowing; examined on the 21st day after application. The procedure, abridged: as §1
For assay [3], the system named is heartshape false pickerelweed (Monochoria vaginalis (Burm.f.) C.Presl). The assay is described as above. Conditions: paddy field soil application; active ingredient 1,000 g per 1 hectare; wettable powder added dropwise to water surface the day after sowing; examined on the 21st day after application. The procedure, abridged:
as §1

The test system of assay [4] is barnyardgrass (Echinochloa crus-galli (L.) P. Beauv. var. crus-galli). As to the kind of experiment: Test Example 2: herbicidal effect by soil application to upland field. As to conditions: soil surface spray, upland field soil, 1,000 g active ingredient per hectare, 21st day after application. The procedure, abridged: (§2)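 After sowing and covering, the soil received an even aqueous spray of wettable powder at a rate of 1,000 g active ingredient/ha (1,000 L/ha). Ratings of herbicidal effect followed a standard scale 21 days post-treatment, with plants held in a greenhouse.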

Assay [5] deals with green foxtail (Setaria viridis (L.) P. Beauv.). The assay is described as above. As to conditions: soil surface spray, upland field soil, 1,000 g active ingredient per hectare, 21st day after application. The essentials: as §2
In assay [6] the test system is slender amaranth (Amaranthus viridis L.). The assay is described as above. Conditions: soil surface spray, upland field soil, 1,000 g active ingredient per hectare, 21st day after application. The essentials: as §2
Assay [7] relates to velvetleaf (Abutilon theophrasti medicus). Described as above. Conditions: soil surface spray, upland field soil, 1,000 g active ingredient per hectare, 21st day after application. The essentials:
as §2

Assay [8] deals with barnyardgrass (Echinochloa crus-galli (L.) P. Beauv. var. crus-galli). In words: Test Example 3: herbicidal effect by application to upland field (foliage treatment). As to conditions: 14th day after application; for herbicidal effect, Barnyardgrass: foliage treatment, 1,000 g active ingredient per 1 hectare, greenhouse; for herbicidal effect (index), Barnyardgrass: foliage treatment, plants grown two weeks, 1,000 g active ingredient per hectare. The procedure, abridged: (§3)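 Read-out is a visual herbicidal-effect grade on a standard scale, taken on the 14th day after a single foliar spray. The spray was wettable powder diluted in water, 1,000 g active ingredient/ha at 1,000 L/ha, applied to greenhouse plants two weeks after sowing.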

The subject of assay [9] is green foxtail (Setaria viridis (L.) P. Beauv.). The assay is described as above. As to conditions: 14th day after application; for herbicidal effect, Green Foxtail: foliage treatment, 1,000 g active ingredient per 1 hectare, greenhouse; for herbicidal effect (index), Green Foxtail: foliage treatment, plants grown two weeks, 1,000 g active ingredient per hectare. The essentials:
as §3

In assay [10] the test system is slender amaranth (Amaranthus viridis L.). The description is as above. Conditions: 14th day after application; for herbicidal effect, Slender Amaranth: foliage treatment, 1,000 g active ingredient per 1 hectare, greenhouse; for herbicidal effect (index), Slender Amaranth: foliage treatment, plants grown two weeks, 1,000 g active ingredient per hectare. The procedure, abridged: as §3

Assay [11] concerns velvetleaf (Abutilon theophrasti medicus). Described as above. As to conditions: 14th day after application; for herbicidal effect, Velvetleaf: foliage treatment, 1,000 g active ingredient per 1 hectare, greenhouse; for herbicidal effect (index), Velvetleaf: foliage treatment, plants grown two weeks, 1,000 g active ingredient per hectare. The essentials:
as §3

Take `COCC(C)n1c(C(F)(F)F)ccc(C(=O)c2cnn(C)c2O)c1=O` (centres unmarked) [IV-36]: in [1], the “herbicidal effect, Scirpus juncoides Roxb.” value was 5 (90% or more of herbicidal effect and crop phytotoxicity). Moreover, in assay [2], the “herbicidal effect, Echinochloa oryzicola Vasing” value was 5 (90% or more of herbicidal effect and crop phytotoxicity). Moreover, the “herbicidal effect, Monochoria vaginalis (Burm. f.) C. Presl” value (from here on “herbicidal effect, Monochoria vaginalis”) in [3] was 5 (90% or more of herbicidal effect and crop phytotoxicity). In addition, the “herbicidal effect (index), Barnyardgrass” value in assay [4] was 5 (90% or more of herbicidal effect and crop phytotoxicity). In addition, in [5], the “herbicidal effect (index), Green Foxtail” value was 3 (50 to less than 70% of herbicidal effect and crop phytotoxicity). Moreover, the “herbicidal effect (index), Slender Amaranth” value in assay [6] was 5 (90% or more of herbicidal effect and crop phytotoxicity). Also, in assay [7], the “herbicidal effect (index), Velvetleaf” value was 5 (90% or more of herbicidal effect and crop phytotoxicity). Moreover, in assay [8], the “herbicidal effect, Barnyardgrass” value was 5 (90% or more of herbicidal effect and crop phytotoxicity). The “herbicidal effect, Green Foxtail” value in assay [9] is 5 (90% or more of herbicidal effect and crop phytotoxicity). Further, the “herbicidal effect, Slender Amaranth” value in assay [10] is 5 (90% or more of herbicidal effect and crop phytotoxicity). Besides, the “herbicidal effect, Velvetleaf” value in assay [11] was 5 (90% or more of herbicidal effect and crop phytotoxicity).
On to `CCCS(=O)(=O)Oc1c(C(=O)c2ccc(C(F)(F)F)n(CCOCCOC)c2=O)cnn1CC` [IV-204], for which the “herbicidal effect, Scirpus juncoides Roxb.” value in assay [1] was 5 (90% or more of herbicidal effect and crop phytotoxicity). In assay [2], the “herbicidal effect, Echinochloa oryzicola Vasing” value is 5 (90% or more of herbicidal effect and crop phytotoxicity). In [3], the “herbicidal effect, Monochoria vaginalis” value was 5 (90% or more of herbicidal effect and crop phytotoxicity). Besides, the “herbicidal effect (index), Barnyardgrass” value in assay [4] is 5 (90% or more of herbicidal effect and crop phytotoxicity). In assay [5], the “herbicidal effect (index), Green Foxtail” value is 5 (90% or more of herbicidal effect and crop phytotoxicity). Besides, in assay [6], the “herbicidal effect (index), Slender Amaranth” value is 5 (90% or more of herbicidal effect and crop phytotoxicity). The “herbicidal effect (index), Velvetleaf” value in [7] was 5 (90% or more of herbicidal effect and crop phytotoxicity). Besides, in [8], the “herbicidal effect, Barnyardgrass” value is 5 (90% or more of herbicidal effect and crop phytotoxicity). The “herbicidal effect, Green Foxtail” value in assay [9] is 5 (90% or more of herbicidal effect and crop phytotoxicity). Further, the “herbicidal effect, Slender Amaranth” value in [10] is 5 (90% or more of herbicidal effect and crop phytotoxicity). Moreover, in assay [11], the “herbicidal effect, Velvetleaf” value was 5 (90% or more of herbicidal effect and crop phytotoxicity).
Turning to `CCSCn1c(C(F)(F)F)ccc(C(=O)C2=C(O)CCCC2=O)c1=O` [I-48], in assay [1], the “herbicidal effect, Scirpus juncoides Roxb.” value was 5 (90% or more of herbicidal effect and crop phytotoxicity). The “herbicidal effect, Echinochloa oryzicola Vasing” value in assay [2] is 5 (90% or more of herbicidal effect and crop phytotoxicity). Moreover, in assay [3], the “herbicidal effect, Monochoria vaginalis” value is 5 (90% or more of herbicidal effect and crop phytotoxicity). Besides, the “herbicidal effect (index), Barnyardgrass” value in assay [4] is 5 (90% or more of herbicidal effect and crop phytotoxicity); in assay [8], 5 (90% or more of herbicidal effect and crop phytotoxicity). The “herbicidal effect (index), Green Foxtail” value in assay [5] was 4 (70 to less than 90% of herbicidal effect and crop phytotoxicity); in assay [9], 5 (90% or more of herbicidal effect and crop phytotoxicity). Moreover, the “herbicidal effect (index), Slender Amaranth” value is 5 (90% or more of herbicidal effect and crop phytotoxicity) in assay [6]; 5 (90% or more of herbicidal effect and crop phytotoxicity) in [10]. The “herbicidal effect (index), Velvetleaf” value was 5 (90% or more of herbicidal effect and crop phytotoxicity) in assay [7]; 5 (90% or more of herbicidal effect and crop phytotoxicity) in assay [11].
Consider `CCCS(=O)(=O)Oc1c(C(=O)c2ccc(C(F)(F)F)n(-c3ccc4c(c3)OCO4)c2=O)cnn1C` [IV-98], for which the “herbicidal effect, Scirpus juncoides Roxb.” value in assay [1] is 5 (90% or more of herbicidal effect and crop phytotoxicity). For the same compound, in [2], the “herbicidal effect, Echinochloa oryzicola Vasing” value was 5 (90% or more of herbicidal effect and crop phytotoxicity). Besides, the “herbicidal effect, Monochoria vaginalis” value in [3] is 5 (90% or more of herbicidal effect and crop phytotoxicity). The “herbicidal effect (index), Barnyardgrass” value in [4] is 3 (50 to less than 70% of herbicidal effect and crop phytotoxicity). Moreover, in [5], the “herbicidal effect (index), Green Foxtail” value is 5 (90% or more of herbicidal effect and crop phytotoxicity). For the same compound, in assay [6], the “herbicidal effect (index), Slender Amaranth” value was 5 (90% or more of herbicidal effect and crop phytotoxicity). Moreover, the “herbicidal effect (index), Velvetleaf” value in assay [7] was 5 (90% or more of herbicidal effect and crop phytotoxicity). Also, the “herbicidal effect, Barnyardgrass” value in assay [8] was 5 (90% or more of herbicidal effect and crop phytotoxicity). The “herbicidal effect, Green Foxtail” value in assay [9] was 4 (70 to less than 90% of herbicidal effect and crop phytotoxicity). Besides, in assay [10], the “herbicidal effect, Slender Amaranth” value is 5 (90% or more of herbicidal effect and crop phytotoxicity). In addition, the “herbicidal effect, Velvetleaf” value in assay [11] was 5 (90% or more of herbicidal effect and crop phytotoxicity).
As to `CCOCCn1c(C(F)(F)F)ccc(C(=O)C2=C(O)C3CCC(C3)C2=O)c1=O` (centres unmarked) [III-20], the “herbicidal effect, Scirpus juncoides Roxb.” value in assay [1] was 5 (90% or more of herbicidal effect and crop phytotoxicity). The “herbicidal effect, Echinochloa oryzicola Vasing” value in assay [2] was 5 (90% or more of herbicidal effect and crop phytotoxicity). Moreover, the “herbicidal effect, Monochoria vaginalis” value in assay [3] was 5 (90% or more of herbicidal effect and crop phytotoxicity). Also, in assay [4], the “herbicidal effect (index), Barnyardgrass” value is 5 (90% or more of herbicidal effect and crop phytotoxicity). Further, the “herbicidal effect (index), Green Foxtail” value in assay [5] was 5 (90% or more of herbicidal effect and crop phytotoxicity). For the same compound, in assay [6], the “herbicidal effect (index), Slender Amaranth” value was 5 (90% or more of herbicidal effect and crop phytotoxicity). Further, the “herbicidal effect (index), Velvetleaf” value in [7] is 5 (90% or more of herbicidal effect and crop phytotoxicity). The “herbicidal effect, Barnyardgrass” value in assay [8] is 5 (90% or more of herbicidal effect and crop phytotoxicity). Besides, the “herbicidal effect, Green Foxtail” value in [9] was 5 (90% or more of herbicidal effect and crop phytotoxicity). Besides, in assay [10], the “herbicidal effect, Slender Amaranth” value is 5 (90% or more of herbicidal effect and crop phytotoxicity). The “herbicidal effect, Velvetleaf” value in assay [11] is 5 (90% or more of herbicidal effect and crop phytotoxicity).
For the compound `Cn1ncc(C(=O)c2ccc(C(F)(F)F)n(-c3ccc4c(c3)OCO4)c2=O)c1O` [IV-97], the “herbicidal effect, Scirpus juncoides Roxb.” value in [1] was 5 (90% or more of herbicidal effect and crop phytotoxicity). Also, in assay [2], the “herbicidal effect, Echinochloa oryzicola Vasing” value is 5 (90% or more of herbicidal effect and crop phytotoxicity). Further, the “herbicidal effect, Monochoria vaginalis” value in assay [3] was 5 (90% or more of herbicidal effect and crop phytotoxicity). For the same compound, the “herbicidal effect (index), Barnyardgrass” value in assay [4] is 5 (90% or more of herbicidal effect and crop phytotoxicity). Moreover, in assay [5], the “herbicidal effect (index), Green Foxtail” value was 4 (70 to less than 90% of herbicidal effect and crop phytotoxicity). For the same compound, the “herbicidal effect (index), Slender Amaranth” value in assay [6] is 5 (90% or more of herbicidal effect and crop phytotoxicity). Also, the “herbicidal effect (index), Velvetleaf” value in assay [7] is 5 (90% or more of herbicidal effect and crop phytotoxicity). The “herbicidal effect, Barnyardgrass” value in [8] was 5 (90% or more of herbicidal effect and crop phytotoxicity). Also, in assay [9], the “herbicidal effect, Green Foxtail” value was 5 (90% or more of herbicidal effect and crop phytotoxicity). In addition, the “herbicidal effect, Slender Amaranth” value in assay [10] was 5 (90% or more of herbicidal effect and crop phytotoxicity). Moreover, the “herbicidal effect, Velvetleaf” value in assay [11] is 5 (90% or more of herbicidal effect and crop phytotoxicity).
Take `CSc1cccc(-n2c(C(F)(F)F)ccc(C(=O)C3=C(O)CCCC3=O)c2=O)c1` [I-80]: the “herbicidal effect, Scirpus juncoides Roxb.” value in [1] was 5 (90% or more of herbicidal effect and crop phytotoxicity). For the same compound, in [2], the “herbicidal effect, Echinochloa oryzicola Vasing” value was 5 (90% or more of herbicidal effect and crop phytotoxicity). The “herbicidal effect, Monochoria vaginalis” value in assay [3] is 5 (90% or more of herbicidal effect and crop phytotoxicity). Also, the “herbicidal effect (index), Barnyardgrass” value in assay [4] is 5 (90% or more of herbicidal effect and crop phytotoxicity); in assay [8], 5 (90% or more of herbicidal effect and crop phytotoxicity). For the same compound, the “herbicidal effect (index), Green Foxtail” value was 5 (90% or more of herbicidal effect and crop phytotoxicity) in [5]; 5 (90% or more of herbicidal effect and crop phytotoxicity) in [9]. The “herbicidal effect (index), Slender Amaranth” value was 5 (90% or more of herbicidal effect and crop phytotoxicity) in assay [6]; 5 (90% or more of herbicidal effect and crop phytotoxicity) in [10]. In addition, the “herbicidal effect (index), Velvetleaf” value is 5 (90% or more of herbicidal effect and crop phytotoxicity) in assay [7]; 5 (90% or more of herbicidal effect and crop phytotoxicity) in assay [11].
